The values below come from patent US12453707B2, “Vaginal films” (priority 2017, dated 2025).

Structures are written as SMILES.

The conditions of data set [1]: cited from earlier work.
Data set [2] in a line: X-ray diffraction solid state solubility of TFV in polymers. Type of data set: physicochemical. Conditions: XRD of lyophilized polymer:TFV mass, pH 6-6.5. As for the experimental part: X-ray diffraction (XRD) was used to study the solid state solubility of TFV in a series of polymers like HPMC-E5, HEC, and NaCMC-LV. TFV and polymers were dissolved together in milliQ water on a magnetic stirrer to achieve various polymer to TFV (P:T) ratios. pH was adjusted to 6-6.5 using sodium hydroxide equimolar to TFV. The solutions were then lyophilized using a Freezone 6 lyophilizer (Labconco, MO, USA). The powder obtained after lyophilization was scanned on a Philips X-ray diffractometer between 5-50° 2θ. A 37-minute scan was obtained. Similarly obtained XRD scans for lyophilized pure polymers and lyophilized TFV (pH 6-6.5) served as controls.

`C[C@H](Cn1cnc2c(N)ncnc21)OCP(=O)(O)O` [TFV, 9-[9(R)-2-(phosphonomethoxy)propyl]adenine]: in data set [1], the “pKa, phosphate groups (first value)” value is listed as 2.1; the “pKa, phosphate groups (second value)” value was 4.3; the “pKa, primary amine group” value was 7.3. In data set [2], the “P:T ratio at which HPMC-E5, HEC and NaCMC-LV were able to solubilize TFV” value was not below 3.
